Among the test systems are HOP-18 NSCLC; DMS 114 small cell lung; KM20L2 colon; DLD-1 colon; XF 498 CNS; P388/ADR leukemia; P388 leukemia; SNB-78 CNS; SN12K1 renal; LXFL 529 NSCLC; RXF-631 renal.
What all share (assay): NCI tumour cell line growth inhibition, 48 h

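Protocol summary: plate cells (96-well), add compound at 5 concentrations, incubate 48 h, interpolate endpoints linearly. Abbreviation: GI50, concentration required for 50% inhibition of growth. TGI denotes the concentration required for complete inhibition of growth.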

On to `Cc1cc(=O)[nH]c(NNC(C#N)c2ccccc2O)n1` (stereo unspecified), for which the TGI in the test on HOP-18 NSCLC is more than 100 µM; in the test with DMS 114 small cell lung, 60.9 µM; with KM20L2 colon, more than 100 µM; with DLD-1 colon, more than 100 µM.
In the case of `Cc1ccc(N2C(=O)C3CSCN3C2=O)cc1` (stereo unspecified), the TGI in the test with XF 498 CNS, with HOP-18 NSCLC, in the test with DMS 114 small cell lung, in the test on P388/ADR leukemia, in the test with DLD-1 colon and in the test with P388 leukemia was more than 100 µM throughout. Further, the TGI in the test on SNB-78 CNS and with SN12K1 renal was more than 100 µM each time. For the same compound, the GI50 in the test on SNB-78 CNS was more than 100 µM.
Take `O=C1c2ccncc2C(=O)c2c(O)ccc(O)c21`: the TGI with XF 498 CNS was 15.2 µM; in the test on LXFL 529 NSCLC, 22 µM; in the test on HOP-18 NSCLC it was 25.5 µM; in the test with DMS 114 small cell lung it was 13 µM; with KM20L2 colon it was 8.12 µM.
Take `O=C(c1ccccc1)c1nnn(Cc2ccccc2Cn2nnc(C(=O)c3ccccc3)c2C(=O)c2ccccc2)c1C(=O)c1ccccc1`: the TGI in the test on LXFL 529 NSCLC, in the test with HOP-18 NSCLC, in the test on DMS 114 small cell lung, in the test on KM20L2 colon, with DLD-1 colon and with SNB-78 CNS was more than 100 µM each time.
Take `CCC1=C(C[C@H]2NCCc3cc(OC)c(OC)cc32)C[C@H]2c3cc(OC)c(OC)cc3CCN2C1`: the TGI with LXFL 529 NSCLC was 6.4 µM; with HOP-18 NSCLC it was more than 100 µM; with RXF-631 renal, 1.43 µM; with DMS 114 small cell lung, 0.0598 µM; in the test with KM20L2 colon, 0.14 µM; in the test on DLD-1 colon, 0.349 µM. In the test with SNB-78 CNS, the TGI was 1.32 µM.

The values are drawn from PubChem BioAssay (NCI).
